# Results taken from paper PMC6321145 (Molecules, 2018).
# What was measured:
# [1] = Oxygen radical absorbance capacity with fluorescein (ORAC-FL) assay; conditions: compound 1 μM
# Experimental: Oxidative stress is another crucial event in AD pathogenesis. In order to determine antioxidant activities of our synthetic compounds, the oxygen radical absorbance capacity method with fluorescein (ORAC-FL) assay was performed. with Trolox (6-hydroxy-2,5,7,8-tetramethylchroman-2-carboxylic acid) as the standard, and their antioxidant activity was expressed as Trolox equivalents.
# The antioxidant activities of the compounds in vitro were determined by the oxygen radical absorbance capacity fluorescein (ORAC-FL) assay. The tested compounds and (±)-6-hydroxy-2,5,7,8-tetramethylchroman-2-carboxylic acid (Trolox) were dissolved in DMSO at a concentration of 10 mM, and then diluted with 75 mM potassium phosphate buffer (pH 7.4) to 50 μM and 10 μM for use. The fluorescein (FL) stock solution (3.4 mM) was diluted with the same buffer to 136 nM. All the assays were conducted with 75 mM potassium phosphate bufffer (pH 7.4), and the final reaction mixture was 200 μL.
# The mixture of compounds (or buffer) (20 μL) and fluorescein (FL, 120 μL) were incubated for 15 min at 37 °C in a black 96-well plate. Then 2,2′-azobis-(amidino-propane)-dihydrochloride (AAPH) solution (60 μL, 40 mM) was rapidly added to the reaction mixture. The fluorescence was recorded every 5 min for 240 min at 485 nm (excitation wavelength) and 535 nm (emission wavelength) (Varioskan Flash Multimode Reader, Thermo Scientific, Waltham, MA, USA), and each sample was prepared and measured for three times independently. […] The net AUC for a sample was calculated using the expression net AUC = AUCsample − AUCblank, The ORAC-FL value of each sample was calculated using the equation of net AUCsample/(AUCTrolox – AUCblank), which was expressed as Trolox equivalents.
# [2] = Metal chelation by UV-vis spectrometry; assay type: physicochemical
# Experimental: The chelation ability of compound 6b1 toward biometals such as Na^+, K^+, Cu^2+, Fe^2+, Mg^2+, Ca^2+, and Zn^2+ was studied by UV-vis spectrometry. […] Its ability to selectively chelate Cu^2+ versus other relevant metal ions was further investigated by UV-vis spectrometry. Solution of compound 6b1 was prepared and treated with the metal ion (Zn^2+, Fe^2+, Ca^2+, Mg^2+, Na^+ and K^+), after 10 min incubation, the optical response was observed, followed by addition of Cu^2+ and consequent analysis of further spectral changes.
# In order to further determine the stoichiometry of compound 6b1 for Cu^2+ binding, the UV spectra was performed by titrations of compound 6b1 upon stepwise additions of a Cu^2+ solution.
# The metal chelation of compound 6b1 was tested in ethanol using a UV-vis spectrophotometer (Shimadzu UV-2450PC) with wavelength ranging from 200 to 700 nm. The absorption spectra of compound 6b1 (10 μM, final concentration) alone or in the presence of metal ions (20 μM, final concentration) after incubation for 30 min at room temperature, was recorded at room temperature in a 1 cm quartz cell. Each sample was repeated for at least three times.
# Experiments for the determination of metal ion binding selectivity were carried as follows. 20.0 mM stock solutions of CuSO4, ZnSO4, FeSO4, CaCl2, MgCl2, NaCl and KCl in MQ water were prepared and then diluted to 1.0 mM using ethanol. […] 10 μL solutions of the compounds treated with 10 μL of ZnSO4, FeSO4, CaCl2, MgCl2, NaCl and KCl. Spectra were recorded after 10 min incubation at 25 °C. The metal binding selectivity was assessed by then adding 10 μL of CuSO4 solution and incubating for 10 additional min at 25 °C. Selectivity was quantified by comparing and normalizing the absorbance values of the maximum in each case with the absorbance of the solution at the same wavelength after addition of CuSO4.
# For binding stoichiometry assay, A fixed amount of compound 6b1 (20 μM) was mixed with growing amounts of copper ion (0–20 μM) and tested the difference UV-vis spectra to investigate the ratio of ligand/metal in the complex.
# [3] = Cytotoxicity on SH-SY5Y cells (MTT); assay type: cell-based, human; conditions: human, SH-SY5Y neuroblastoma cells; MTT, 24 h; mean ± SEM of three measurements
# Experimental: (§1) The cytotoxicity of our synthesized compounds was examined in human neuroblastoma SH-SY5Y cells. The cell viability was determined by using methyl thiazolyl tetrazolium (MTT) colorimetry, the cells were treated with different concentrations of compounds (0–100 μM). The result is shown in the Supplementary Materials (Table S1).
# (§2) The cytotoxicities of the compounds were evaluated using the MTT assay. SH-SY5Y cells were subcultured in 96-well plates at a seeding density of 1 × 10^4 cells per well. After 24 h, the medium was removed and treated with different concentrations of tested compounds for 24 h at 37 °C. The survival of cells was determined with MTT assay. Then 80 μL of medium and 20 μL of MTT (0.5 mg/mL, final concentration) were added to each well and incubated for another 4 h. After the removal of MTT, the formazan crystals were dissolved in DMSO. The amount of formazan was measured using a microculture plate reader at the wavelength of 570 nm. Each concentration was performed in triplicate.
# [4] = system: SH-SY5Y cells; assay: Cytotoxicity on SH-SY5Y cells (MTT); assay type: cell-based, human; conditions: 20 μM
# Experimental: as §1, §2
# [5] = biological target: T1, Aβ1–42 fibrils (Homo sapiens, UniProt P05067); assay: Disaggregation of self-induced Aβ1–42 aggregation fibrils (ThT binding assay); assay type: biochemical; conditions: compound 20 μM, fibrils formed 24 h, then 24 h with compound, 37 °C
# T1 construct: Aβ1–42 (Sigma, St. Louis, MO, USA; counterion, NaOH) stock solution was prepared by dissolving Aβ1–42 peptide in ammonium hydroxide; purchased Sigma
# Experimental: The ability of compound 6b1 to disaggregate self-induced Aβ1–42 aggregation fibrils was also investigated. Aβ1–42 fibrils were prepared by incubating fresh Aβ1–42 for 24 h at 37 °C, and the test compound was added to the sample and incubated for another 24 h at 37 °C. Then the sample was analyzed by ThT binding assay and TEM assay.
# [6] = system: SH-SY5Y human neuroblastoma cells; assay: Protective effect against Aβ1–42-induced toxicity in SH-SY5Y cells (MTT); assay type: cell-based
# Experimental: The cytoprotective effect of compound 6b1 against Aβ1–42 damage in SH-SY5Y human neuroblastoma cell lines was determined by MTT assay. […] To investigate the protective effect of compound 6b1 on Aβ1–42 induced cell toxicity, SH-SY5Y cells exposed to Aβ1–42 (20 μM) were incubated with different concentrations of compound 6b1 (5, 10, and 20 μM) for 24 h, and the cell viability was tested.
# SH-SY5Y cells were seeded in 96-well plates (1 × 10^4 cells per well) and exposed to Aβ1–42 (20 μM) in the presence of compound 6b1 at the increasing doses (0, 5, 10 and 20 μM). After 24 h and 48 h, cell viability was measured by the MTT assay.
# [7] = biological target: BuChE (Homo sapiens, UniProt P06276); assay: BuChE inhibition (data not shown); assay type: biochemical
# [8] = compound 10 μM, metal ions 20 μM, ethanol
# T1 sequence (P05067 672-713): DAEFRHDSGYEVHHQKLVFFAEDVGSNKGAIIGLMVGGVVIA
# BuChE, sequence (P06276 29-602): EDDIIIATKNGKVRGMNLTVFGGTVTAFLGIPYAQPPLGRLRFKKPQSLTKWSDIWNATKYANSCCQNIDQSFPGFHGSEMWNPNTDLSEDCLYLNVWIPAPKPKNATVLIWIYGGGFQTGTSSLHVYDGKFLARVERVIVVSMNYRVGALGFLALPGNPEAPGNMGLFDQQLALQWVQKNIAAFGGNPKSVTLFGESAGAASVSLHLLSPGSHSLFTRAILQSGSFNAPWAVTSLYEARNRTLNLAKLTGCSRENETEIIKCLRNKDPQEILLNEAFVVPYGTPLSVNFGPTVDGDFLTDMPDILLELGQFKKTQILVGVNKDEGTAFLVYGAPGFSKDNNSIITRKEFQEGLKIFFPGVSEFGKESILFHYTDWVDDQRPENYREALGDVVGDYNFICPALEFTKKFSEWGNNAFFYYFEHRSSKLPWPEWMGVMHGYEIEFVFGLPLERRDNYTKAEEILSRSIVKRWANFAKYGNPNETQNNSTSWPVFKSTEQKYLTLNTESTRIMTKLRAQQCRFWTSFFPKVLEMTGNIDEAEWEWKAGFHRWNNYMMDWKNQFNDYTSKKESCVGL
compound,measurement,setting,value
"CCN(CC)c1ccc(/C=C/c2cc(NCCCN(C)C)c3ccccc3n2)cc1 [Compound 6b1, (E)-N^1-(2-(4-(Diethylamino)styryl)quinolin-4-yl)-N^3,N^3-dimethylpropane-1,3-diamine]",ORAC,[1],6.23 ± 0.05 μmol of Trolox equivalents/μmol of tested compounds
same,"Binding to Na^+, K^+, Mg^2+, Ca^2+ (UV-vis)",[2]; [8],may not bind to these metal ions
same,"Interaction with Cu^2+, Fe^2+, Zn^2+ (UV-vis)",[2]; [8],form the complex
same,Selectivity of metal chelation for Cu^2+ versus other metal ions,"[2]; versus Zn^2+, Fe^2+, Ca^2+, Mg^2+, Na^+, K^+",good selectivity of metal chelation for Cu^2+
same,IC50 at 24 h,[3],254 µM
same,"Effect on SH-SY5Y cell viability, compound alone",[4],does not affect cell viability
same,Disaggregation ratio of self-induced Aβ1–42 fibrils,[5],64.3%
same,Cell viability against Aβ1–42-induced cytotoxicity,"[6]; Aβ1–42 20 μM, compound 5, 10, 20 μM, 24 h",increased the cell viability
same,viability at 20 µM,"[6]; Homo sapiens, SH-SY5Y, 48 h, read-out: Cell viability after co-incubation with Aβ1–42",89.8%
same,Inhibitory activity toward BuChE,[7],weak
